According to patent US6455550B1, “N-alkanoylphenylalanine derivatives” (Hoffmann-La Roche Inc., priority 1997, dated 2002):
pIC50: −log10 of the molar value.

The compounds below were run against T1, VLA-4 (α4β1 integrin) binding to immobilized VCAM-1 (Homo sapiens, UniProt P05556+P13612) (assay: VLA-4/VCAM-1 Screening Assay (solid-phase, dual antibody ELISA)). Conditions: IC50 nM, Ramos cell-derived VLA-4, recombinant human VCAM-1 coated plates, 2 hr at 37° C.
T1 construct: followed by 10 μl of Ramos cell-derived VLA-4; endogenous in cells; host or cells: Ramos cells (VLA-4 preparation derived from the cells)
Protocol: VLA-4 antagonist activity, defined as ability to compete for binding to immobilized VCAM-1 was quantitated using a solid-phase, dual antibody ELISA. VLA-4 (α4β1 integrin) bound to VCAM-1 was detected by a complex of anti-integrin β1 antibody: HRP-conjugated anti-mouse IgG: chromogenic substrate (K-Blue). Initially, this entailed coating 96 well plates (Nunc Maxisorp) with recombinant human VCAM-1 (0.4 μg in 100 μl PBS), sealing each plate and then allowing the plates to stand at 4° C for Å18 hr. […] On the day of assay, all plates were washed twice with VCAM Assay Buffer (200 μl/well of 50 mM Tris-HCl, 100 mM NaCl, 1 mM MnCl2, 0.05% Tween 20; pH 7.4). Test compounds were dissolved in 100% DMSO and then diluted 1:20 in VCAM Assay Buffer supplemented with 1 mg/mL BSA (i.e., final DMSO=5%). […] 100 μl per well of each dilution was added to the VCAM-coated plates, followed by 10 μl of Ramos cell-derived VLA-4. These plates were sequentially mixed on a platform shaker for 1 min, incubated for 2 hr at 37° C. and then washed four times with 200 μl/well VCAM Assay Buffer. 100 μl of mouse anti-human integrin β1 antibody was added to each well (0.6 μg/mL in VCAM Assay Buffer+1 mg/mL BSA) and allowed to incubate for 1 hr at 37° C. At the conclusion of this incubation period, all plates were washed four times with VCAM Assay Buffer (200 μl/well). A corresponding second antibody, HRP-conjugated goat anti-mouse IgG (100 μl per well @1:800 dilution in VCAM Assay Buffer+1 mg/mL BSA), was then added to each well, followed by a 1 hr incubation at room temperature and concluded by three washes (200 μl/well) with VCAM Assay Buffer. Color development was initiated by addition of 100 μl K-Blue per well (15 min incubation, room temp) and terminated by addition of 100 μl Red Stop Buffer per well. […] Results were calculated as % inhibition of total binding (i.e., VLA-4+VCAM-1 in the absence of test compound).

T1 sequence (P13612 34-1032): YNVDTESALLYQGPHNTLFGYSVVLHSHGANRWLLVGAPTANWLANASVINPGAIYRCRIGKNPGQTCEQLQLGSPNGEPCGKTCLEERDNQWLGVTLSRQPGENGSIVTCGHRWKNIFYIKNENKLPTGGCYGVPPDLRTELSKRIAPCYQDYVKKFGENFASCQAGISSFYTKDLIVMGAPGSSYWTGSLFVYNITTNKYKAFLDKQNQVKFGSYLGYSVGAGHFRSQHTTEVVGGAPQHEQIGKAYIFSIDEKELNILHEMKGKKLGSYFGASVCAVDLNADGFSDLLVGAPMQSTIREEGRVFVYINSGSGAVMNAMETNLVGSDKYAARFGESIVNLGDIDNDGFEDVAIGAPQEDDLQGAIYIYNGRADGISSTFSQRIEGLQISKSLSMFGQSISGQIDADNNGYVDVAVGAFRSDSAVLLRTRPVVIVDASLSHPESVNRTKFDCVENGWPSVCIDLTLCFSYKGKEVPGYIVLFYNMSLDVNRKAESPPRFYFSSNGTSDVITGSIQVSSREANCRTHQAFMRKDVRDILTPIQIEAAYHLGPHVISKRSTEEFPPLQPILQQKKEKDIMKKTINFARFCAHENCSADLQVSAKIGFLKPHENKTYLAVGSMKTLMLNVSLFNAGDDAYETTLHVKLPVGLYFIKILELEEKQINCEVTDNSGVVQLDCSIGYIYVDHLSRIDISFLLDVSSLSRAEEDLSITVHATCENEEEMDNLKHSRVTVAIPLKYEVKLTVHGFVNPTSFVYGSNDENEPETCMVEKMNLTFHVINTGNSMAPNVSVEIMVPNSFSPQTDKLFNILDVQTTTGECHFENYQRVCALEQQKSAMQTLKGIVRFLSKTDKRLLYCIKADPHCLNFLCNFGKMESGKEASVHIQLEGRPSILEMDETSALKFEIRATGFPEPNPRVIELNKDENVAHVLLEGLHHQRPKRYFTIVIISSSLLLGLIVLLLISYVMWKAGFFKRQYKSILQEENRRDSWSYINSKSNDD
T1 sequence (P05556 21-798): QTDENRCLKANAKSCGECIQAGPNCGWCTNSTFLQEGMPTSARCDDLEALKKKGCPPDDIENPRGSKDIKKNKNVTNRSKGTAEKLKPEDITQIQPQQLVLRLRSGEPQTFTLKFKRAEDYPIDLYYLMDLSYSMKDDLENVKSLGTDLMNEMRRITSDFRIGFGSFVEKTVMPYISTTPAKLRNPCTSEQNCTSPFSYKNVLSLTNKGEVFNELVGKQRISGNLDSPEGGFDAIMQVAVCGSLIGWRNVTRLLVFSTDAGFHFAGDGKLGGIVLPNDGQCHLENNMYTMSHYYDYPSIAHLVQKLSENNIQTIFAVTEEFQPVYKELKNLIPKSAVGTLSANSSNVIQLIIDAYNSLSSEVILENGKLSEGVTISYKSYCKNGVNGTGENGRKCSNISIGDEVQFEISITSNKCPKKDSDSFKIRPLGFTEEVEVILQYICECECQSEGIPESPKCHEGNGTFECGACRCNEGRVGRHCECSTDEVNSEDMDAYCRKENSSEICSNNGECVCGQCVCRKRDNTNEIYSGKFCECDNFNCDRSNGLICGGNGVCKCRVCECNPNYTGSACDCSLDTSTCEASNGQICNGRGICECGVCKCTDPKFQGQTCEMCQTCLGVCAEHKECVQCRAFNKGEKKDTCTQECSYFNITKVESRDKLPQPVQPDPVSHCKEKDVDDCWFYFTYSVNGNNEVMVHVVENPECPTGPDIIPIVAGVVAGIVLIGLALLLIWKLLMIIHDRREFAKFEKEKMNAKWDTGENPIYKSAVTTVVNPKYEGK

| Structure (SMILES) | IC50 [nM] |
| --- | --- |
| CC(=O)NCCCCC1(C(=O)N[C@@H](Cc2ccc(NC(=O)c3c(Cl)cccc3Cl)cc2)C(=O)O)CCCC1 [Example 259] | 3.6 |
| O=C(NCCC1(C(=O)N[C@@H](Cc2ccc(NC(=O)c3c(Cl)cccc3Cl)cc2)C(=O)O)CCCC1)c1cccc(C(F)(F)F)c1 [Example 258] | 14 |

Same assay, conditions: Ramos cell-derived VLA-4, recombinant human VCAM-1 coated plates, 2 hr at 37° C.; read-out: IC50

| Structure (SMILES) | pIC50 |
| --- | --- |
| NCC(=O)NCCC1(C(=O)N[C@@H](Cc2ccc(NC(=O)c3c(Cl)cccc3Cl)cc2)C(=O)O)CCCC1 [Example 217, 4-[[(2,6-dichlorophenyl)carbonyl]amino]-N-[[1-[2-[(2-amino-1-oxoethyl)amino]ethyl]yclopentyl]carbonyl]-L-phenylalanine] | 8.70 |

Each compound was assayed against T2, cell-surface VLA-4 (α4β1 integrin) on Ramos cells binding to immobilized VCAM-1 (Homo sapiens, UniProt P05556+P13612) (assay: Ramos (VLA-4)/VCAM-1 Cell-Based Screening Assay (cell adhesion)). Conditions: Calcein-AM labeled Ramos cells, VCAM-1 coated plates, 45 min at room temperature; read-out: IC50 in Ramos Cell Based Assay.
T2 construct: Ramos cells bearing cell-surface VLA-4; endogenous in cells; host or cells: Ramos cells (VLA-4); VCAM-1 purified from CHO cell culture media
Source text: Calcein-AM was purchased from Molecular Probes Inc.
VLA-4 (α4β1 integrin) antagonist activity, defined as ability to compete with cell-surface VLA-4 for binding to immobilized VCAM-1, was quantitated using a Ramos-VCAM-1 cell adhesion assay. Ramos cells bearing cell-surface VLA-4, were labeled with a fluorescent dye (Calcein-AM) and allowed to bind VCAM-1 in the presence or absence of test compounds.
Initially, this entailed coating 96 well plates (Nunc Maxisorp) with recombinant human VCAM-1 (100 ng in 100 μl PBS), sealing each plate and allowing the plates to stand at 4° C for Å18 hr. The VCAM-coated plates were subsequently washed twice with 0.05% Tween-20 in PBS, and then blocked for 1hr (room temperature) with 200 μl of Blocking Buffer (1% BSA/0.02% thimerosal) to reduce non-specific binding. Following the incubation with Blocking Buffer, plates were inverted, blotted and the remaining buffer aspirated. Each plate was then washed with 300 μl PBS, inverted and the remaining PBS aspirated.
Test compounds were dissolved in 100% DMSO and then diluted 1:25 in VCAM Cell Adhesion Assay Buffer (4 mM CaCl2, 4 mM MgCl2 in 50 mM TRIS-HCl, pH 7.5) (final DMSO=4%). […] 100 μl/well of each dilution was added to the VCAM-coated plates, followed by 100 μl of Ramos cells (200,000 cells/well in 1% BSA/PBS). […] Plates were inverted to remove non-adherent cells, blotted and 300 μl/well PBS added. Plates were again inverted, blotted and the remaining buffer gently aspirated. 100 μl Lysis Buffer (0.1% SDS in 50 mM TRIS-HCl, pH 8.5) was added to each well and agitated for 2 min on a rotary shaking platform.

T2 sequence (P13612 34-1032): as the sequence (P13612 34-1032) above
T2 sequence (P05556 21-798): as the sequence (P05556 21-798) above

| Structure (SMILES) | pIC50 |
| --- | --- |
| NCC(=O)NCCC1(C(=O)N[C@@H](Cc2ccc(NC(=O)c3c(Cl)cccc3Cl)cc2)C(=O)O)CCCC1 [Example 217, 4-[[(2,6-dichlorophenyl)carbonyl]amino]-N-[[1-[2-[(2-amino-1-oxoethyl)amino]ethyl]yclopentyl]carbonyl]-L-phenylalanine] | 6.68 |
| CCCC(=O)N1C(c2ccccc2)N(c2ccc(C[C@H](NC(=O)C3(CCNC(C)=O)CCCC3)C(=O)O)cc2)C(=O)[C@H]1C (single isomer, unassigned) [Example 344] | 7.72 |
| O=C(NCCC1(C(=O)N[C@@H](Cc2ccc(NC(=O)c3c(Cl)cccc3Cl)cc2)C(=O)O)CCCC1)NCc1ccccc1 [Example 191] | 6.49 |
| CCCC(=O)N1C(c2ccc(Cl)cc2)N(c2ccc(C[C@H](NC(=O)C3(CCNC(C)=O)CCCC3)C(=O)O)cc2)C(=O)[C@H]1C (single isomer, unassigned) [Example 351] | 7.89 |
| [N-]=[N+]=NCCCCC1(C(=O)N[C@@H](Cc2ccc(NC(=O)c3c(Cl)cccc3Cl)cc2)C(=O)O)CCCC1 [Example 261] | 6.74 |
| CC(=O)NCCCC1(C(=O)N[C@@H](Cc2ccc(NC(=O)c3c(Cl)cccc3Cl)cc2)C(=O)O)CCCC1 [Example 276, N-[[1-(3-(Acetylamino)propyl]cyclopenyl]carbonyl]-4-[[(2,6-dichlorophenyl)carbonyl]amino]-L-phenylalanine] | 7.66 |
| COc1ccc(C[C@@H]2C(=O)N(c3ccc(C[C@H](NC(=O)C4(CCNC(C)=O)CCCC4)C(=O)O)cc3)C(CCc3ccccc3)N2C(C)=O)cc1 (single isomer, unassigned) [Example 293] | 7.40 |
| CC(=O)NCCC1(C(=O)N[C@@H](Cc2ccc(N3C(=O)[C@@H](Cc4ccccc4)N(C(C)=O)C3c3ccccc3)cc2)C(=O)O)CCCC1 (single isomer, unassigned) [Example 311] | 8.52 |
| CC(=O)NCCC1(C(=O)N[C@@H](Cc2ccc(N3C(=O)[C@@H](Cc4cccnc4)N(C(C)=O)C3c3ccccc3)cc2)C(=O)O)CCCC1 (single isomer, unassigned) [Example 299] | 8.77 |
| COc1ccc(C[C@@H]2C(=O)N(c3ccc(C[C@H](NC(=O)C4(CCNC(C)=O)CCCC4)C(=O)O)cc3)C(c3ccc(Cl)cc3)N2C(C)=O)cc1 (single isomer, unassigned) [Example 286] | 7.62 |
| COc1ccc(C[C@@H]2C(=O)N(c3ccc(C[C@H](NC(=O)C4(CCNC(C)=O)CCCC4)C(=O)O)cc3)C(c3ccccc3)N2C(C)=O)cc1 (single isomer, unassigned) [Example 278] | 8.70 |
| COC(=O)NC(=O)NCCC1(C(=O)N[C@@H](Cc2ccc(NC(=O)c3c(Cl)cccc3Cl)cc2)C(=O)O)CCCC1 [Example 189] | 6.89 |
| COc1ccc(C[C@@H]2C(=O)N(c3ccc(C[C@H](NC(=O)C4(CCNC(C)=O)CCCC4)C(=O)O)cc3)C(c3ccccc3)N2C(=O)COc2ccccc2)cc1 (single isomer, unassigned) [Example 284] | 8.54 |
| CC(=O)NCCC1(C(=O)N[C@@H](Cc2ccc(N3C(=O)[C@@H](C)N(C(C)=O)C3c3ccc(Cl)cc3)cc2)C(=O)O)CCCC1 (mixture of isomers) [Example 350] | 7.89 |
| CSCCCCC1(C(=O)N[C@@H](Cc2ccc(NC(=O)c3c(Cl)cccc3Cl)cc2)C(=O)O)CCCC1 [Example 260] | 6.89 |
| O=C(NCCC1(C(=O)N[C@@H](Cc2ccc(NC(=O)c3c(Cl)cccc3Cl)cc2)C(=O)O)CCCC1)Nc1ccccc1[N+](=O)[O-] [Example 190] | 6.19 |
| CS(=O)(=O)CCCCC1(C(=O)N[C@@H](Cc2ccc(NC(=O)c3c(Cl)cccc3Cl)cc2)C(=O)O)CCCC1 [Example 263] | 8.30 |

Same assay, conditions: Conc. 10 nM; Ramos cell adhesion to VCAM-1

| Structure (SMILES) | inhibition at 0.01 µM [%] |
| --- | --- |
| CC(=O)NCCC1(C(=O)NC(Cc2ccc(N3C(=O)C(C)N(C(C)=O)C3c3ccccc3)cc2)C(=O)O)CCCC1 (single isomer, unassigned) [Example 342] | 24 |
| CCCC(=O)N1C(Cc2ccccc2)C(=O)N(c2ccc(CC(NC(=O)C3(CCNC(C)=O)CCCC3)C(=O)O)cc2)C1c1ccc(Cl)cc1 (single isomer, unassigned) [Example 321] | 59 |
| CCCC(=O)N1C(Cc2cccnc2)C(=O)N(c2ccc(CC(NC(=O)C3(CCNC(C)=O)CCCC3)C(=O)O)cc2)C1c1ccc(Cl)cc1 (stereo not drawn) [Example 304] | 35 |
| CCCC(=O)N1C(Cc2ccccc2)C(=O)N(c2ccc(CC(NC(=O)C3(CCNC(C)=O)CCCC3)C(=O)O)cc2)C1c1ccccc1 (single isomer, unassigned) [Example 313] | 68 |
| CC(=O)NCCC1(C(=O)NC(Cc2ccc(N3C(=O)C(C)N(C(=O)COc4ccccc4)C3c3ccccc3)cc2)C(=O)O)CCCC1 (single isomer, unassigned) [Example 349] | 58 |
| CCCC(=O)N1C(Cc2cccnc2)C(=O)N(c2ccc(CC(NC(=O)C3(CCNC(C)=O)CCCC3)C(=O)O)cc2)C1c1ccccc1 (stereo not drawn) [Example 300] | 32 |
| COc1ccc(CC2C(=O)N(c3ccc(CC(NC(=O)C4(CCNC(C)=O)CCCC4)C(=O)O)cc3)C(c3ccc(Cl)cc3)N2C(=O)COc2ccccc2)cc1 (single isomer, unassigned) [Example 291] | 48 |
| CCCC(=O)N1C(Cc2ccc(OC)cc2)C(=O)N(c2ccc(CC(NC(=O)C3(CCNC(C)=O)CCCC3)C(=O)O)cc2)C1c1ccc(Cl)cc1 (single isomer, unassigned) [Example 288] | 92 |
| CC(=O)NCCC1(C(=O)NC(Cc2ccc(N3C(=O)C(Cc4cccnc4)N(C(C)=O)C3c3ccc(Cl)cc3)cc2)C(=O)O)CCCC1 (stereo not drawn) [Example 303] | 70 |
| CC(=O)NCCC1(C(=O)NC(Cc2ccc(N3C(=O)C(Cc4ccccc4)N(C(=O)COc4ccccc4)C3c3ccccc3)cc2)C(=O)O)CCCC1 (single isomer, unassigned) [Example 317] | 17 |

Same assay, conditions: IC50 in Ramos Cell Based Assay (nM), Calcein-AM labeled Ramos cells, VCAM-1 coated plates, 45 min at room temperature

| Structure (SMILES) | IC50 [nM] |
| --- | --- |
| CC(=O)NCCCCC1(C(=O)N[C@@H](Cc2ccc(NC(=O)c3c(Cl)cccc3Cl)cc2)C(=O)O)CCCC1 [Example 259] | 129 |
| O=C(NCCC1(C(=O)N[C@@H](Cc2ccc(NC(=O)c3c(Cl)cccc3Cl)cc2)C(=O)O)CCCC1)c1cccc(C(F)(F)F)c1 [Example 258] | 1030 |
| NC(=O)NCCC1(C(=O)N[C@@H](Cc2ccc(NC(=O)c3c(Cl)cccc3Cl)cc2)C(=O)O)CCCC1 [Example 188] | 36 |
| N#CCCCCC1(C(=O)N[C@@H](Cc2ccc(NC(=O)c3c(Cl)cccc3Cl)cc2)C(=O)O)CCCC1 [Example 262] | 39 |
| CC(C)(C)C(=O)NCCC1(C(=O)N[C@@H](Cc2ccc(NC(=O)c3c(Cl)cccc3Cl)cc2)C(=O)O)CCCC1 [Example 156, 4-[[(2,6-dichlorophenyl)carbonyl]amino]-N-[[1-[2-[[N-(1,1-dimethylethyl)carbonyl]amino]ethyl]cyclopentyl]carbonyl]-L-phenylalanine] | 28 |
| CSCCCCC1(C(=O)N[C@@H](Cc2ccc(NC(=O)c3c(Cl)cccc3Cl)cc2)C(=O)O)CCCC1 [Example 260] | 94 |
